GI50 and TGI data for 13 compounds are collected here from PubChem BioAssay (NCI).

Common to all, as to assay: NCI tumour cell line growth inhibition, 48 h
For test [1], the system named is HL-60(TB) leukemia.
Test [2] has as its system MCF7 breast.
Test [3] relates to OVCAR-3 ovarian.
Test [4] relates to OVCAR-5 ovarian.
The test system of test [5] is OVCAR-8 ovarian.
Test [6] relates to PC-3 prostate.
Test [7] relates to SF-295 CNS.
Test [8] deals with SNB-75 CNS.
Test [9] relates to TK-10 renal.
In test [10] the test system is UO-31 renal.

Where “and” joins values, the source holds several entries; their conditions need not be identical. Identical values can stand only once.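 48-hour exposure; five concentrations; linearly interpolated endpoints. The concentration for 50% growth inhibition is given as GI50. TGI denotes the concentration required for complete inhibition of growth.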

On to `Cc1cc(O)c2c(c1)C(=O)C=CC2=O`, for which the GI50 in test [1] was 0.0336 µM and 0.31 µM; in test [5], 14.1 µM and 4.75 µM; in test [9] it was 5.92 µM and 12.7 µM. Besides, the TGI in test [1] is 0.202 µM and 1.89 µM; in test [2], 11.3 µM and 21.8 µM; in [3] it was 10 µM and 10.2 µM; in [4], 43.1 µM and 34.4 µM; in [5], 43.9 µM and 14.8 µM; in test [6], 46.3 µM and 25.5 µM. Further, the TGI was 32.7 µM and 39 µM in test [7]; 34 µM and 30 µM in test [8]; 15.6 µM and 26.9 µM in [9]; 11.4 µM and 16.2 µM in [10].
As to `O=C(NCCNCCO)c1ccc2c(c1)oc1cc3ccccc3c(=O)n12`, the GI50 in test [1] is 25.6 µM; in test [2], 31.1 µM; in test [5], 15.7 µM; in test [6], 35.5 µM; in test [7], above 50 µM; in test [8], 15 µM. Further, the GI50 in [9] is 1.48 µM; in test [10] it was 16.6 µM. In addition, the TGI in [1] was above 50 µM; in test [2] it was above 50 µM; in test [5] it was above 50 µM; in test [6], above 50 µM; in test [7], above 50 µM; in [8], 44.4 µM. For the same compound, the TGI in [9] was 19.6 µM; in test [10], above 50 µM.
Turning to `CCn1cc(C(=O)O)c(=O)c2cc(F)c(N3CCN(S(=O)(=O)c4cccc5ccccc45)CC3)cc21`, the GI50 in test [1] is 2.58 µM; in test [2], 2.72 µM; in [3] it was 3.69 µM; in test [4] it was 3.38 µM; in [5] it was 3.09 µM; in [6], 2.66 µM. Moreover, the GI50 in [8] is 1.89 µM; in [9], 7.6 µM; in test [10] it was 2.21 µM. For the same compound, the TGI in test [1] is 6.41 µM; in test [2], 9.04 µM; in test [3] it was 15.6 µM; in test [4], above 100 µM; in test [5] it was above 100 µM; in test [6] it was above 100 µM. Besides, the TGI in test [8] was 8.49 µM; in [9] it was above 100 µM; in test [10] it was 8.95 µM.
On to `O=C1NC(=N[C@@H](CO)c2ccccc2)S/C1=C\c1ccc2ncccc2c1`, for which the GI50 in [1] was 6.07 µM; in test [2], 8.38 µM; in [3], 14.8 µM; in test [4], above 25 µM; in test [5] it was 8.93 µM; in test [6], above 25 µM. Further, the GI50 is 14.4 µM in test [7], 3.64 µM in [8], 4.92 µM in test [9] and 4.53 µM in test [10]. Further, the TGI in test [1] is 19.4 µM; in [2], above 25 µM; in [3] it was above 25 µM; in [4], above 25 µM; in test [5] it was above 25 µM; in [6], above 25 µM. Also, the TGI in [7] was above 25 µM; in test [8] it was above 25 µM; in test [9] it was above 25 µM; in test [10], above 21.2 µM.
In the case of `O=C(OCc1ccc2c(Br)cc(Br)c(O)c2n1)c1cc2ccccc2[nH]1`, the GI50 is 0.615 µM in [1]; 0.434 µM in [2]; 0.281 µM in test [3]; 1.24 µM in test [4]; 0.829 µM in test [5]; 0.965 µM in test [6]. For the same compound, the GI50 in [7] was 3.32 µM; in test [8], 0.328 µM; in test [9], 1.18 µM; in [10], 0.406 µM. In addition, the TGI in [1] was determined as 2.94 µM; in test [2], 2.07 µM; in [3], 0.921 µM; in test [4], 2.68 µM; in [5], 2.82 µM; in test [6] it was 2.68 µM. Besides, the TGI in test [7] amounted to 7.68 µM; in test [8], 1.8 µM; in [9], 2.43 µM; in [10], 1.19 µM.
As for `OC1(c2ccc(Cl)c(C(F)(F)F)c2)CCN(CCCC(c2ccc(F)cc2)c2ccc(F)cc2)CC1`, the GI50 in [1] is 1.01 µM; in test [2] it was 0.796 µM; in test [3], 0.888 µM; in test [4] it was 0.868 µM; in test [5] it was 0.823 µM; in test [6], 0.857 µM. The GI50 is 0.833 µM in test [7], 0.713 µM in test [8], 0.89 µM in [9] and 0.714 µM in [10]. Also, the TGI in [1] came out at 2.02 µM; in test [2] it was 1.47 µM; in [3] it was 1.63 µM; in [4], 1.77 µM; in test [5] it was 1.53 µM; in test [6], 2.1 µM. Besides, the TGI was determined as 1.63 µM in test [7], 1.43 µM in [8], 1.69 µM in [9] and 2.72 µM in test [10].
For `COc1ccc2c(c1)c(-c1nc(-c3c[nH]c4ncccc34)cs1)cn2CCCN1CCOCC1`, the GI50 was 2.11 µM in [1]; 1.43 µM in [2]; 2.57 µM in [3]; 2.6 µM in test [4]; 2.48 µM in [6]; 1.91 µM in test [7]. In addition, the GI50 is 1.27 µM in test [8], 3.48 µM in [9] and 1.37 µM in [10]. The TGI in [1] is 4.36 µM; in [2], 8.83 µM; in test [3] it was 7.93 µM; in [4] it was 7.91 µM; in test [6] it was 8.68 µM; in [7] it was 4.17 µM. Further, the TGI is 3.4 µM in test [8], 13.6 µM in [9] and 3.67 µM in test [10].
On to `O=C(Nc1cccc(-n2cc(-c3ccncc3)c(-c3cc(O)cc(Cl)c3)n2)c1)c1ccc(N2CCOCC2)c(C(F)(F)F)c1`, for which the GI50 is 0.81 µM in test [1]; 4.16 µM in test [2]; 7.2 µM in test [3]; 14.8 µM in test [4]; 1.64 µM in test [5]; 1.09 µM in [6]. Further, the GI50 in [7] was 0.614 µM; in test [8] it was 0.722 µM; in [10], 1.41 µM. In addition, the TGI in [1] is 3.04 µM; in [2] it was above 100 µM; in test [3] it was above 100 µM; in [4], 39.6 µM; in test [5], above 100 µM; in test [6], 45.6 µM. In addition, the TGI in test [7] was 2.78 µM; in [8], above 100 µM; in test [10] it was 15.5 µM.
On to `CCCCCCCCCCCC[N+]1(CCCCCCCCCCCC)CCCC(C)C1` (configuration not stated), for which the GI50 in test [1] was 0.174 µM; in [2], 0.257 µM; in test [3], 0.197 µM; in test [4], 1.06 µM; in test [6], 0.167 µM; in test [7] it was 0.259 µM. For the same compound, in [8], the GI50 was 0.349 µM. Besides, the TGI in test [1] stood at 0.666 µM; in [2], 1.2 µM; in test [3], 0.569 µM; in test [4] it was 2.29 µM; in test [6], 0.536 µM; in test [7], 1.29 µM. The compound also had a TGI in [8] of 1.63 µM.
Regarding `O=[N+]([O-])c1ccc(Cl)c2c([N+](=O)[O-])cccc12`, the TGI was 7.16 µM in [1]; above 10 µM in [2]; above 10 µM in test [3]; above 10 µM in [5]; above 10 µM in test [6]; above 10 µM in [7]. Moreover, the TGI in test [8] and in test [9] was above 10 µM each time.
Take `COc1ccc(OC)c(/C=C/c2nc(=S)n(-c3ccc(Cl)cc3)[nH]2)c1`: the GI50 in [1] is 3.57 µM; in test [2] it was 4.44 µM; in [3], 3.34 µM; in test [4], 70.3 µM; in test [5], 28.4 µM; in test [6], 8.91 µM. Moreover, the values for the GI50 in [7], in [8] and in [9] were 4.16 µM, 2.85 µM and 25.8 µM, respectively. Moreover, the TGI is above 100 µM in [1]; above 100 µM in test [2]; 21.4 µM in test [3]; above 100 µM in test [4]; above 100 µM in test [5]; above 100 µM in [6]. The TGI in test [7], in [8] and in test [9] was above 100 µM each time.
As for `O=C1CC(c2ccccc2)Oc2ccccc21` (configuration not stated), the TGI in test [1] is 49.5 µM; in [2], above 100 µM; in test [5], above 100 µM; in test [6], above 100 µM; in test [7], above 100 µM; in test [8] it was above 100 µM. In addition, the TGI in [9] and in [10] was above 100 µM throughout.
Take `COc1ccc2sc3c(NCCCN)nc4ccccc4c3c(=O)c2c1`: the GI50 in test [1] is 1.89 µM; in test [2] it was 1.7 µM; in test [3] it was 1.77 µM; in test [4], 1.68 µM; in test [6], 1.5 µM; in [7], 1.79 µM. In addition, the results for the GI50 in [8] and in test [10] were 1.38 µM and 1.43 µM, respectively. Further, the TGI in test [1] stood at 3.63 µM; in test [2] it was 3.48 µM; in test [3], 3.32 µM; in [4], 3.28 µM; in test [6], 3.05 µM; in test [7], 3.36 µM. The results for the TGI in test [8] and in [10] were 2.72 µM and 2.82 µM, respectively.
